Patent US20230374068A1, “COMPOSITIONS AND METHODS FOR TREATING A DISEASE” (RAMOT AT TEL AVIV UNIVERSITY LTD., priority 2021, published 2023)
Entries after “also recorded” stand apart in the source; their conditions may differ. Each block holds one molecule with its values, some of them ahead of it.

How the values were obtained:
Rab12 phosphorylation [1] = experiment: Rab12 phosphorylation in Ion/TPA-activated BMMCs with inhibitors (western blot); assay type: cell-based, mouse; settings: 1 μM inhibitor, 30 min pre-incubation, then Ion/TPA 30 min
Description: BMMCs were seeded in 10 cm plates overnight in growth medium or medium containing 400 nM TPA. Next day cells were collected and washed three times with Tyrode's buffer in Eppendorf tubes. Cells were subsequently incubated for 30 minutes at 37° C. with vehicle (0.1% DMSO) or with 10 μM GSK2578215A (GSK), 1 μM Go6976, 2 mM EGTA or 1 μM MRT68921, as indicated. Cells were then left untreated (UT) or treated for additional 30 minutes at 37° C., with a combination of 1 μM 4-bromo-calcium ionophore A23187 (Ion) and 50 nM of the phorbol ester (TPA), in the absence or presence of the inhibitors. Cells were then washed three times with PBS, lysed with lysis buffer containing phosphatase inhibitors and cell lysates analysed by western blotting with anti phosphoRab12 antibodies followed by reprobing with anti Rab12 antibodies. A representative blot is shown.
The results are the relative ratio of phosphorylated to total Rab12. […]
Samples were separated by SDS-PAGE using 10-12% polyacrylamide gels and electrophoretically transferred to nitrocellulose membranes. […] The intensity of the immunoreactive bands was quantified using ImageJ software.
Cells (RBL, BMMCs or SH-SY5Y) were grown overnight in growth medium or medium containing 400 nM TPA, where indicated. […] Cells were then washed with PBS and lysed for 30 minutes in lysis buffer D. Cell lysates were analyzed by western blotting. […]

PC12 cells = experiment: SG distribution, cell morphology and primary cilia in PC12 cells expressing CA Rab12 (confocal microscopy); assay type: cell-based
Description: Cells (4×10^4 cells/well) were seeded onto 12 mm round glass coverslips in a 24-well plate. Next day, cells were transiently co-transfected using lipofectamine 2000 with 500 ng of plasmid encoding NPY-mRFP and 1000 ng of pEGFP-C1-Rab12(Q100L), a GTP-locked, constitutively active mutant of Rab12 (herein: CA Rab12). After transfection, cells were either left untreated (UT) or incubated for 48 hours at 37° C. with 100 nM rotenone. After 48 hours, cells were incubated for an additional hour at 37° C. with or without 100 μM of TAT-125 peptide (i.e. […], SEQ ID NO: 14), as indicated. Cells were then fixed and immunostained with polyclonal antibodies directed against Arl13b (primary cilium marker), followed by Hilyte Plus 647-conjugated goat anti-rabbit IgG. Cells were visualized by confocal microscopy. The right panels are the overlap of the confocal images on the corresponding brightfield.
RBL cells (4×10^5 cells/well) or PC12 cells (4×10^4 cells/well) were grown on 12-mm round glass coverslips, washed three times with PBS, and fixed for 20 min at room temperature with 4% paraformaldehyde in PBS. […] After washing, the cells were mounted (Golden Bridge Life Science, Mukilteo City, WA) and analyzed using a LEICA SP8 STED high resolution laser scanning confocal microscope (Leica, Wetzlar, Germany) using a 63 oil/1.4 numerical aperture objective. […]

Rab12 phosphorylation [2] = experiment: Rab12 phosphorylation in PC12 cells, Ion/TPA- or rotenone-treated (western blot); assay type: cell-based
Description: Cells that were incubated in the absence of rotenone were then left untreated or incubated with a combination of 1 μM 4-bromo-calcium ionophore A23187 (Ion) and 50 nM of the phorbol ester (TPA) for 30 minutes at 37° C. Cells were then washed three times with PBS, lysed with lysis buffer containing phosphatase inhibitors and cell lysates analysed by western blotting with anti phosphoRab12 antibodies followed by re-probing with anti GAPDH antibodies. […] The results are the fold increase in Rab12 phosphorylation based on the ratio of phosphorylated Rab12 to GAPDH.
Samples were separated by SDS-PAGE using 10-12% polyacrylamide gels and electrophoretically transferred to nitrocellulose membranes. Blots were blocked for 20 min in TBST (10 mM Tris-HCl, pH 8.0, 150 mM NaCl, and 0.05% Tween 20) containing 5% skim-milk, followed by overnight incubation at 4° C. with the desired primary Abs. Blots were washed three times and incubated for 1 hour at room temperature with HRP-conjugated secondary Ab. Immunoreactive bands were visualized by the ECL method according to standard procedures. The intensity of the immunoreactive bands was quantified using ImageJ software.
For Rab12 phosphorylation in PC12 cells, cells were grown for 48 hours either in growth medium or in medium supplemented with 1 μM LY333531 or 10 μM GSK2578215A in the absence or presence of 100 nM rotenone. For Ion/TPA-stimulated phosphorylation, cells grown in medium only or medium containing inhibitors, were stimulated with 1 μM 4-bromo-calcium ionophore A23187 (Ion) and 50 nM of the phorbol ester (TPA) for 30 minutes. Cells were processed as above.

[3] = target: T1, Rab12 interaction with RILP (Mus musculus, UniProt Q5ND29); experiment: Peptide inhibition of Rab12 pulldown by GST-RILP from RBL cell lysates; assay type: binding, rat; settings: 100 μM peptide, 4 h at 4° C., then RBL cell lysate overnight
T1 construct: made in house
T1 sequence (Q5ND29 1-369): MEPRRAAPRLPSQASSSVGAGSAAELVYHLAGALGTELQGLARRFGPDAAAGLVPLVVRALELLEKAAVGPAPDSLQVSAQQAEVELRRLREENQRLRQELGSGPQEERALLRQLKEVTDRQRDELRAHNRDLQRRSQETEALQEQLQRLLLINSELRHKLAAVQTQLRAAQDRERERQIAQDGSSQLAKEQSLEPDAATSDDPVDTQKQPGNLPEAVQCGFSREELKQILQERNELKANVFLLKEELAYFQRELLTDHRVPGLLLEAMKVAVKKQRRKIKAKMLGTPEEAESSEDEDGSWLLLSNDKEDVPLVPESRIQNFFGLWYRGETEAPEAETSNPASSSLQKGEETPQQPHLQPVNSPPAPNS
Description: At the end of the incubation period, beads were sedimented by centrifugation at 5000×g for 5 min at 4° C., washed four times with 50 mM Hepes pH 7.4, 150 mM NaCl, 1 mM MgCl2, 0.2% Triton X-100, protease inhibitor mixture, 1 mM PMSF, 2 mM Na3VO4, 10 mM NaPPi and 80 mM β-glycerophosphate and suspended in 1× sample buffer and boiled for 7 minutes. Proteins were resolved by SDS-PAGE and analyzed by immunoblotting with anti Rab12 antibodies. […] The results are the average pulldown±SEM derived from two independent experiments.
Pulldown assays were performed as previously described 2. Briefly, 20 μg of GST fusion proteins or control GST immobilized on Glutathione Agarose beads were incubated for 18 hours at 4° C. with RBL cell lysates (500 μg) prepared in buffer C (50 mM Hepes pH 7.4, 150 mM NaCl, 1 mM MgCl2, 1% TritonX100, 1 mM PMSF, protease inhibitor mixture, 2 mM Na3VO4) in the presence of 0.5 mM GTPγS. At the end of the incubation period, beads were sedimented by centrifugation at 5000×g for 5 minutes at 4° C., washed 4 times in buffer C with 0.2% TritonX100, and finally suspended in sample buffer, boiled for 7 minutes, and subjected to SDS-PAGE and immunoblotting. […]

[4] = target: T2, endogenous Rab12 of RBL cells (rat, UniProt P35284 49-291, limits assumed); experiment: GST pulldown of endogenous Rab12 from resting RBL cell lysates, anti-Rab12 immunoblot
T2 construct: Total Rab12 pulled down from cell lysates (blot reprobed with anti-Rab12)
T2 sequence (looked up): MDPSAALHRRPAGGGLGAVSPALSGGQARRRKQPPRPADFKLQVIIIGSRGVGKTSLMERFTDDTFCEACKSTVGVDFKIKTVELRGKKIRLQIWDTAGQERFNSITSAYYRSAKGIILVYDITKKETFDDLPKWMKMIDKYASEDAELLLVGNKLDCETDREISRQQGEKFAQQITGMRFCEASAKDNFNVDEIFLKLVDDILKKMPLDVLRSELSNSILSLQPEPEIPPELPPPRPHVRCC
Description: Cells were then lysed and 500 μg of cell lysate were incubated overnight at 4° C. with either GST, GST-RILP, GST-RILP-L1 or GST-RILP-L2, immobilized on glutathione agarose beads, as indicated. At the end of the incubation period, beads were sedimented by centrifugation at 5000×g for 5 minutes at 4° C., washed four times with buffer containing 50 mM Hepes pH 7.4, 150 mM NaCl, 1 mM MgCl₂, 0.2% Triton X-100, protease inhibitor mixture, 1 mM PMSF, 2 mM Na₃VO₄, 10 mM NaPPi and 80 mM β-glycerophosphate and suspended in 1× sample buffer and boiled for 7 minutes. Proteins were resolved by SDS-PAGE and analyzed by immunoblotting with the anti-phosphoRab12 antibodies, followed by reprobing with anti Rab12 antibodies, as indicated. Representative blots are shown. Similar results were obtained in two separate experiments.
Next, it was assessed whether […] any impact on Rab12 interactions with its RILP family effectors. To this end, lysates derived from resting RBL cells or RBL cells that were triggered with either IgE/Ag or Ion/TPA, were subjected to pulldown assays by chimeric proteins consisting of GST-fused to either RILP, RILP-L1, or RILP-L2, or control GST. […] Therefore, under these conditions, the efficacy of Rab12-effector interactions was RILP-L1>RILP>>>RILP-L2.

Molecule: Cn1c2ccccc2c2c3c(c4c5ccccc5n(CCC#N)c4c21)CNC3=O [Go6976]
- Ion/TPA-stimulated phosphorylation of Rab12 (Rab12 phosphorylation [1]): significantly inhibited

Molecule: CN1CCc2cc(Nc3ncc(C4CC4)c(NCCCNC(=O)C4CCC4)n3)ccc2C1 [MRT68921]
- Ion/TPA-stimulated phosphorylation of Rab12 (Rab12 phosphorylation [1]): significantly inhibited

Molecule: YGRKKRRQRRRGGEACKSTVGVDFKIKT [TAT-125, cell permeable version of peptide 125]
- cellular distribution of the SGs (Rab12-RILP interaction in intact cells) (PC12 cells; PC12 cells expressing CA Rab12 and NPY-mRFP, 100 μM TAT-125): partial scattering of the clustered SGs
- cell morphology and primary cilia of rotenone treated cells (PC12 cells; PC12 cells, 100 nM rotenone 48 h, then 100 μM TAT-125): improves the cell morphology; also recorded: regained their normal appearance and size

Molecule: C=C(C)[C@H]1Cc2c(ccc3c2O[C@@H]2COc4cc(OC)c(OC)cc4[C@@H]2C3=O)O1 [rotenone]
- induction of Rab12 phosphorylation (Rab12 phosphorylation [2]; Ion/TPA 30 min or 100 nM rotenone 48 h): induced

- pulldown of Rab12 by GST-RILP [3]: could inhibit
Molecule: EACKSTVGVDFKIKT [peptide Rab125, human Rab12 residues 69-83]

- pulldown of Rab12 by GST-RILP [3]: could inhibit
Molecule: ERFNSITSAYYRSAK [peptide Rab121, human Rab12 residues 102-116]

Molecule: O=C(Nc1cccnc1)c1cc(-c2ccnc(F)c2)ccc1OCc1ccccc1 [GSK2578215A]
- rotenone-induced phosphorylation of Rab12 (Rab12 phosphorylation [2]; 100 nM rotenone 48 h with 1 μM LY333531 or 10 μM GSK2578215A): significantly inhibited
- Ion/TPA-induced phosphorylation of Rab12 (Rab12 phosphorylation [2]; 1 μM LY333531 or 10 μM GSK2578215A 48 h, Ion/TPA 30 min): resistant

- fold pulldown efficacy against GST-RILP [4]: 3 fold
- fold pulldown efficacy against GST-RILP-L2 [4]: 9 fold
B1: GST-RILP-L1 (pGEX-4T-3-RILP-L1) (other, mouse, UniProt Q9JJC6 1-406, looked up)
chain: MEEPLGSPPAALSALEKNVAELTVMDVYDIASLVGHEFERVIDQHGCESIARLMPKVVRVLEILEVLVSRHHVAPELDELRLELDRLRVERMDRIEKERKHQKELELVEDVWRGEAQDLLSQIAQLQEENKQLMTNLNHKDVGFSEEEFQKQEGMSERERQVMKRLKEVVDKQRDELRAKDRELGLKNEDVEALQQQQTRLMKINHDLRHRVTVVEAQGKALIEQKVELEADLQTKEQEMGSLRAELGKLRERLQGEHSQNGEEEEAEIQPQPDGEESISDAEKAALDLKDPNRPRFTLQELRDVLHERNELKSKVFLLQEELAYYKSEEIEEENRIPQPPPITHPRTSPQPESGIKRLFSFFSRDKKRLANTQRPTHIHESFGQWAITQRDDGYTEQGQEALQHL
notes: Immobilized on glutathione agarose beads; not shown: glutathione S-transferase (GST) encoded by the pGEX-4T-3 vector
